Here are results for eleven compounds from patent US10301295B2, “Herbicidal compounds” (Syngenta Participations AG, priority 2014, dated 2019).

Common to all, as to type: in vivo
In assay [1] the test system is Echinochloa crus-galli (ECHCG). Put plainly: Glasshouse assay for herbicidal activity, pre-/post-emergence (percentage phytotoxicity). The following applies: Echinochloa crus-galli, Rate 250 g/ha, 100%=total damage, 0%=no damage. In a few lines:
(§1)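 Percentage phytotoxicity was assessed visually, 100% meaning total plant damage and 0% none, at 20 days after application for pre-emergence and 15 days for post-emergence. Plants were potted in standard soil and treated after 1 day or about 12 days of growth.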

Another assay has as its system Avena fatua (AVEFA). The assay is described as above. To be noted: Avena fatua, Rate 250 g/ha, 100%=total damage, 0%=no damage. A digest of the protocol: as §1
The subject of a further assay is Lolium perenne (LOLPE). The description is as above. To be noted: Lolium perenne, Rate 250 g/ha, 100%=total damage, 0%=no damage. In a few lines: as §1
The test system of assay [2] is Alopecurus myosuroides (ALOMY). The description is as above. The following applies: Alopecurus myosuroides, Rate 250 g/ha, 100%=total damage, 0%=no damage. In a few lines: as §1
A further assay deals with wheat. The assay is described as follows: Post-emergence herbicidal activity against cereal crops (wheat) +/- safener, crop selectivity. To be noted: 100%=total damage to plant, 0%=no damage; for Post-emergence herbicidal activity against wheat (percentage phytotoxicity), +CQC: 250 g/ha, plus safener cloquintocet-mexyl (CQC) applied at 50 g/ha; for percent phytotoxicity (crop damage) to wheat at 250 g/ha: Triticum aestivum, 360 h, without safener, read-out: Post-emergence herbicidal activity against wheat (percentage phytotoxicity), Wheat - CQC. A digest of the protocol:
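Test plants raised in pots in a glasshouse (24/18 °C warm or 20/16 °C cool species day/night, 16 h light, 65% humidity) and treated post-emergence about 12 days after sowing. Visual percentage phytotoxicity scored 15 days after application (0% = no damage, 100% = total damage).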

[3] abbreviates: post-emergence, 360 h, post-emergence, visual assessment 15 DAA, read-out: Post-emergence herbicidal activity (percentage phytotoxicity), ECHCG POST.
Where [4] appears, read: pre-emergence, 480 h, pre-emergence, visual assessment 20 DAA, read-out: Pre-emergence herbicidal activity (percentage phytotoxicity), ECHCG PRE.
The mark [5] stands for this setting: post-emergence, 360 h, post-emergence, visual assessment 15 DAA, read-out: Post-emergence herbicidal activity (percentage phytotoxicity), AVEFA POST.
[6] abbreviates: pre-emergence, 480 h, pre-emergence, visual assessment 20 DAA, read-out: Pre-emergence herbicidal activity (percentage phytotoxicity), AVEFA PRE.
Setting [7] is: post-emergence, 360 h, post-emergence, visual assessment 15 DAA, read-out: Post-emergence herbicidal activity (percentage phytotoxicity), LOLPE POST.
The mark [8] stands for this setting: pre-emergence, 480 h, pre-emergence, visual assessment 20 DAA, read-out: Pre-emergence herbicidal activity (percentage phytotoxicity), LOLPE PRE.
Where [9] appears, read: 360 h, post-emergence, visual assessment 15 DAA, read-out: Post-emergence herbicidal activity (percentage phytotoxicity), ALOMY POST.
Setting [10] is: 480 h, pre-emergence, visual assessment 20 DAA, read-out: Pre-emergence herbicidal activity (percentage phytotoxicity), ALOMY PRE.

Like-named read-outs stand apart in the source and are kept apart here.

Take `Cc1cc(C)c(C2C(=O)CC(CCNC(=S)Nc3ccccc3F)C2=O)c(C)c1` (stereo not shown) [Compound A88]: the pest or weed control at 250 g/ha in assay [1] (setting [3]) was determined as 0%; in assay [1] (setting [4]), 40%; with Avena fatua (AVEFA) (setting [5]), 0%; with Avena fatua (AVEFA) (setting [6]), 0%; with Lolium perenne (LOLPE) (setting [7]) it was 60%; in the assay with Lolium perenne (LOLPE) (setting [8]) it was 40%. Moreover, the pest or weed control at 250 g/ha in assay [2] (setting [9]) and in assay [2] (setting [10]) was 0% each time. Also, the “Post-emergence herbicidal activity against wheat (percentage phytotoxicity), +CQC” value with wheat was found to be 0%. The percent phytotoxicity (crop damage) to wheat at 250 g/ha with wheat came to 0%.
For `Cc1cc(C)c(C2C(=O)CC(CCNC(=O)NC(=O)c3c(Cl)cccc3Cl)C2=O)c(C)c1` (stereo not shown) [Compound A52], the pest or weed control at 250 g/ha in assay [1] (setting [3]) stood at 90%; in assay [1] (setting [4]) it was 100%; in the assay with Avena fatua (AVEFA) (setting [5]) it was 80%; with Avena fatua (AVEFA) (setting [6]), 70%; in the assay with Lolium perenne (LOLPE) (setting [7]) it was 90%; in the assay on Lolium perenne (LOLPE) (setting [8]) it was 80%. The results for the pest or weed control at 250 g/ha in assay [2] (setting [9]) and in assay [2] (setting [10]) were 90% and 80%, respectively. For the same compound, the “Post-emergence herbicidal activity against wheat (percentage phytotoxicity), +CQC” value in the assay with wheat is 30%. Also, in the assay on wheat, the percent phytotoxicity (crop damage) to wheat at 250 g/ha was determined as 80%.
For the compound `Cc1cc(C)c(C2C(=O)CC(CCNC(=O)NC(=O)c3ccccc3C#N)C2=O)c(C)c1` (stereo not shown) [Compound A67], the pest or weed control at 250 g/ha in assay [1] (setting [4]) stood at 30%; with Avena fatua (AVEFA) (setting [6]), 0%; with Lolium perenne (LOLPE) (setting [8]) it was 20%; in assay [2] (setting [10]), 0%. For the same compound, the “Post-emergence herbicidal activity against wheat (percentage phytotoxicity), +CQC” value with wheat is 0%. For the same compound, the percent phytotoxicity (crop damage) to wheat at 250 g/ha in the assay on wheat amounted to 0%.
As to `Cc1cc(C)c(C2C(=O)CC(CCNc3ccc(C(F)(F)F)cn3)C2=O)c(C)c1` (stereo not shown) [Compound A34], the pest or weed control at 250 g/ha in assay [1] (setting [3]) was 100%; in assay [1] (setting [4]), 100%; in the assay on Avena fatua (AVEFA) (setting [5]), 90%; with Avena fatua (AVEFA) (setting [6]), 80%; with Lolium perenne (LOLPE) (setting [7]), 90%; in the assay with Lolium perenne (LOLPE) (setting [8]), 100%. In addition, the pest or weed control at 250 g/ha in assay [2] (setting [9]) and in assay [2] (setting [10]) was 90% each time. Moreover, in the assay with wheat, the “Post-emergence herbicidal activity against wheat (percentage phytotoxicity), +CQC” value came out at 70%. The percent phytotoxicity (crop damage) to wheat at 250 g/ha in the assay with wheat was 80%.
Take `COc1ccc(C(=O)NC(=O)NCCC2CC(=O)C(c3c(C)cc(C)cc3C)C2=O)cc1` (stereo not shown) [Compound A57]: the pest or weed control at 250 g/ha is 80% in assay [1] (setting [3]); 100% in assay [1] (setting [4]); 50% with Avena fatua (AVEFA) (setting [5]); 0% in the assay on Avena fatua (AVEFA) (setting [6]); 100% in the assay with Lolium perenne (LOLPE) (setting [7]); 70% in the assay on Lolium perenne (LOLPE) (setting [8]). For the same compound, the values for the pest or weed control at 250 g/ha in assay [2] (setting [9]) and in assay [2] (setting [10]) were 90% and 80%, respectively. For the same compound, the “Post-emergence herbicidal activity against wheat (percentage phytotoxicity), +CQC” value in the assay on wheat came out at 20%. Besides, the percent phytotoxicity (crop damage) to wheat at 250 g/ha with wheat is 80%.
Take `Cc1cc(C)c(C2C(=O)CC(CCNC(=O)NC(=O)c3ccc(F)c(F)c3)C2=O)c(C)c1` (stereo not shown) [Compound A56]: the pest or weed control at 250 g/ha in assay [1] (setting [3]) was 80%; in assay [1] (setting [4]), 60%; with Avena fatua (AVEFA) (setting [5]), 80%; in the assay with Avena fatua (AVEFA) (setting [6]), 40%; in the assay on Lolium perenne (LOLPE) (setting [7]) it was 90%; with Lolium perenne (LOLPE) (setting [8]), 80%. Also, the figures for the pest or weed control at 250 g/ha in assay [2] (setting [9]) and in assay [2] (setting [10]) were 80% and 70%, respectively. Moreover, the “Post-emergence herbicidal activity against wheat (percentage phytotoxicity), +CQC” value with wheat was 70%. For the same compound, the percent phytotoxicity (crop damage) to wheat at 250 g/ha in the assay on wheat is 80%.
On to `Cc1cc(C)c(C2C(=O)CC(CCNC(=O)Nc3cc(C(C)(C)C)on3)C2=O)c(C)c1` (stereo not shown) [Compound A15], for which the pest or weed control at 250 g/ha in assay [1] (setting [3]) was 30%; in assay [1] (setting [4]) it was 70%; in the assay with Avena fatua (AVEFA) (setting [5]), 50%; in the assay on Avena fatua (AVEFA) (setting [6]) it was 50%; in the assay with Lolium perenne (LOLPE) (setting [7]), 70%; in the assay with Lolium perenne (LOLPE) (setting [8]), 70%. The pest or weed control at 250 g/ha is 60% in assay [2] (setting [9]) and 70% in assay [2] (setting [10]). The “Post-emergence herbicidal activity against wheat (percentage phytotoxicity), +CQC” value in the assay with wheat came to 30%. For the same compound, the percent phytotoxicity (crop damage) to wheat at 250 g/ha in the assay on wheat came to 40%.
As for `Cc1cc(C)c(C2C(=O)CC(CCNC(=O)Nc3cc(C(F)(F)F)ccn3)C2=O)c(C)c1.Cl` (stereo not shown) [Compound A2, 1-[2-[2,4-dioxo-3-(2,4,6-trimethylphenyl)cyclopentyl]ethyl]-3-[4-(trifluoromethyl)-2-pyridyl]urea], the pest or weed control at 250 g/ha was 100% in assay [1] (setting [3]); 90% in assay [1] (setting [4]); 100% in the assay with Avena fatua (AVEFA) (setting [5]); 80% in the assay with Avena fatua (AVEFA) (setting [6]); 100% with Lolium perenne (LOLPE) (setting [7]); 80% in the assay with Lolium perenne (LOLPE) (setting [8]). Moreover, the pest or weed control at 250 g/ha worked out at 80% in assay [2] (setting [9]) and 70% in assay [2] (setting [10]). Also, in the assay with wheat, the “Post-emergence herbicidal activity against wheat (percentage phytotoxicity), +CQC” value is recorded as 80%. The percent phytotoxicity (crop damage) to wheat at 250 g/ha in the assay on wheat was found to be 80%.
With `Cc1cc(C)c(C2C(=O)CC(CCNC(=O)NC(=O)c3cccc(C(F)(F)F)c3)C2=O)c(C)c1` (stereo not shown) [Compound A66], the pest or weed control at 250 g/ha in assay [1] (setting [3]) stood at 60%; in assay [1] (setting [4]), 10%; in the assay on Avena fatua (AVEFA) (setting [5]) it was 30%; in the assay with Avena fatua (AVEFA) (setting [6]), 0%; in the assay with Lolium perenne (LOLPE) (setting [7]), 80%; in the assay on Lolium perenne (LOLPE) (setting [8]), 40%. The figures for the pest or weed control at 250 g/ha in assay [2] (setting [9]) and in assay [2] (setting [10]) were 70% and 20%, respectively. The “Post-emergence herbicidal activity against wheat (percentage phytotoxicity), +CQC” value in the assay with wheat was found to be 40%. For the same compound, the percent phytotoxicity (crop damage) to wheat at 250 g/ha in the assay with wheat turned out to be 80%.
For the compound `Cc1cc(C)c(C2C(=O)CC(CCNS(=O)(=O)c3ccccc3C)C2=O)c(C)c1` (stereo not shown) [Compound A87], the pest or weed control at 250 g/ha in assay [1] (setting [3]) stood at 0%; in assay [1] (setting [4]), 30%; in the assay with Avena fatua (AVEFA) (setting [5]), 50%; in the assay on Avena fatua (AVEFA) (setting [6]), 0%; in the assay on Lolium perenne (LOLPE) (setting [7]), 0%; in the assay with Lolium perenne (LOLPE) (setting [8]) it was 70%. Besides, the pest or weed control at 250 g/ha in assay [2] (setting [9]) and in assay [2] (setting [10]) was 0% each time. Besides, the “Post-emergence herbicidal activity against wheat (percentage phytotoxicity), +CQC” value in the assay with wheat is listed as 0%. The percent phytotoxicity (crop damage) to wheat at 250 g/ha with wheat is 20%.
Turning to `Cc1cc(C)c(C2C(=O)CC(CCNS(=O)(=O)c3ccccc3F)C2=O)c(C)c1` (stereo not shown) [Compound A76], the pest or weed control at 250 g/ha in assay [1] (setting [3]) was determined as 40%; in assay [1] (setting [4]), 40%; in the assay on Avena fatua (AVEFA) (setting [5]) it was 20%; in the assay on Avena fatua (AVEFA) (setting [6]), 0%; in the assay with Lolium perenne (LOLPE) (setting [7]), 60%; in the assay with Lolium perenne (LOLPE) (setting [8]) it was 70%. Further, the figures for the pest or weed control at 250 g/ha in assay [2] (setting [9]) and in assay [2] (setting [10]) were 20% and 30%, respectively. Further, in the assay on wheat, the “Post-emergence herbicidal activity against wheat (percentage phytotoxicity), +CQC” value came to 0%. Also, in the assay on wheat, the percent phytotoxicity (crop damage) to wheat at 250 g/ha came out at 0%.
